The results in this text go back to patent US20220349876A1, “USE OF DKK1 INHIBITOR IN PREVENTION AND/OR TREATMENT OF TUMOR CACHEXIA AND DISEASES ASSOCIATED WITH DIABETES” (SHANGHAI DONGTSU BIOSCIENCES CO., LTD., priority 2019, published 2022).

Entries after “also recorded” stand apart in the source; their conditions may differ.

The subject of one test is HUVEC cells. In words: γH2AX DNA damage response in HUVEC cells (Western blot). It is filed as cell-based. How it is done:
(2) The transfection system of a 3.5 cm petri dish was prepared as follows: 1 μl of siRNA Oligo/Red (concentration of the original solution was 20 μM) was added to an EP tube containing 250 μl of pure Opti-MEM and mixed, and 1.5 μl of RNAiMAX (transfection Reagent) was added to the flow tube containing 250 μl of pure Opti-MEM and mixed, and then all the liquid in the EP tube was added to the flow tube and mixed, and allowed to stand at room temperature for 15 min.
(3) The prepared transfection system was added to a 3.5 cm culture dish, and the cells were cultured for 24-48 h, then the samples were collected and the total cell protein was extracted, and the knockdown effect of the gene was identified by Western Blotting.
(3) Add 150 μl of total protein lysate to each cell sample to make the lysate fully contact with the cells, scrape off the cell lysate with a scraper, collect it into a pre-cooled EP tube, and take an ice bath for 15 min.
(§1) Protein electrophoresis gels are double-layered gels, including an upper stacking gel and a lower separating gel. The concentration of the stacking gel is 5%, and the concentration of the separating gel is determined according to the molecular weight of the target protein. In this study, large molecular weight proteins (LRP5/6, β-catenin, β-arrestin1/2) used 8%-5% double-layer gel, and small molecular weight proteins (γH2AX, p53, p21, Bcl-2, Bax, Cleaved Caspase-3) used 12%-5% double-layer gel. In addition, the number of wells (10 wells or 15 wells) and thickness (1 mm or 1.5 mm) of the preparation gel were selected according to the number and volume of protein samples loaded. The gel formulation is shown in the experimental material section, and the preparation steps are as follows: […]
(Immunoblotting shows a protein as a band on a membrane.)

In the next test the test system is wild-type mice heart. Nature of the test: Local injection of Dkk1 protein into the heart combined with MDC or BIM-46187. The class given is in vivo, mouse. How it is done: In the experiment of local injection of Dkk1 purified protein into the heart combined with MDC intervention, 10-week-old wild-type male mice were selected, the left chest was depilated, and intraperitoneal injection of MDC (diluted in sterile PBS, 10 mg/kg) or the corresponding volume of DMSO (diluted in sterile PBS) and injected at the same time every day thereafter. After 1 h of MDC intervention, cardiac Dkk1 protein injection was performed. The mice were given continuous inhalation anesthesia with 1% isoflurane and oxygenated with a ventilator, and then the fourth intercostal space near the sternum was opened to expose the heart. Using a 200 μl microsyringe, Dkk1 (10 μg of Dkk1 per heart, dissolved in 30 μl PBS) or an equal volume of PBS was injected locally at three sites in the heart. Of these, two sites are on the border around the left ventricle, and one site enters the myocardium of the left ventricle. After the injection, the wound was sutured, the anesthesia was removed, and the mice were awake. After MDC was continuously intervened for 2 days, the mice were anesthetized and the materials were collected.
In addition to injecting Dkk1 protein alone into the heart, we also need to perform experiments of local injection of Dkk1 combined with BIM-46187 into mouse hearts. According to the experimental grouping, it was divided into cardiac injections of four different solutions, including PBS, Dkk1, BIM-46187, and a mixture of Dkk1 and BIM-46187. The dosage of Dkk1 per heart is 10 μg, and the dosage of BIM-46187 is 2.4 ng, diluted with 30 μl PBS and then injected into the heart. The specific operation steps are the same as above. After the injection, the wound was sutured, the anesthesia was removed, and the mice were awake. Two days after the injection, the mice were anesthetized and the materials were collected.

A further test concerns β-arrestin1/2. In words: β-arrestin1/2 translocation in HUVEC cells (Western blot). It is filed as cell-based. The settings on record: BIM-46187 pretreatment 1 μM for 30 min. How it is done:
(5) Add 100 μl (cell) or 200 μl (tissue) A solution to each sample, and resuspend the cell pellet with a pipette to completely disperse the pellet. The tissue pellet should be fully homogenized on ice with a homogenizer, and the ice bath should be used for 15 min.
(10) Add 50 μl (cells) or 100 μl (tissue) B solution to each sample, resuspend the pellet in Vortex at the highest speed for 10 s, ice bath for 10 min, and repeat twice to fully extract membrane proteins.
as §1

In test [1] the test system is STZ-induced diabetic mice. In words: STZ-induced type 1 diabetes mouse model with insulin or MDC rescue. It is filed as in vivo. How it is done:
STZ-induced diabetes is a chemical modeling method for diabetes. Its full name is streptozotocin, which is a broad-spectrum antibiotic isolated from achromatic streptomycin. It can selectively damage islet 13 cells in a short period of time, causing 13 cell necrosis, resulting in varying degrees of blood insulin drop and blood sugar rise, resulting in insulin-dependent type 1 diabetes mellitus. […] Modelling criteria are non-fasting blood glucose values above 13.8 mM (250 mg/dl). The modeling steps are as follows: (4) According to the body weight, mice in the model group were injected intraperitoneally with 2% STZ-citric acid solution (160 mg/kg), and the mice in the control group were intraperitoneally injected with the corresponding volume of citrate buffer. 2 h after the injection, the mice were fed back. […] Specific steps are as follows: (3) According to the body weight, the insulin rescue group was subcutaneously injected with diluted insulin (1 U/kg/day), once a day at the same time for 7 consecutive days, and the control group was given a corresponding volume of normal saline. […] Body weight and random blood glucose were measured at different time points after injection. […] (1) Sample preparation: Store the freshly obtained mouse blood in an EDTA anticoagulation tube, stand at room temperature for 10 min, centrifuge at 1000 g for 15 min, and collect the supernatant, namely plasma. If it cannot be detected immediately, it should be subpackaged and stored at −80° C. to avoid repeated freezing. If precipitation occurs during storage, it should be fully thawed at room temperature before use, and centrifuged again.

The next test deals with CT26 tumor-bearing mice. Nature of the test: Tumor cachexia in CT26 tumor-bearing mice: tumor-free body weight, muscle weight, muscle membrane proteins. It is filed as in vivo, mouse.
The next test concerns LRP6 and Kremen2. In words: Intramuscular injection of Dkk1, Western blot of membrane LRP6 and Kremen2. The class given is in vivo, mouse. The note with it: simultaneous injection with Dkk1. How it is done:
Wild-type mice and β-arrestin2+/−KO mice were injected into the left quadriceps (0.25 mg/kg) and an equal volume of PBS was injected into the right leg as controls. MDC (10 mg/kg), IGFBP-4/H95P (1.7 mg/kg) or PBS were injected in combination with Dkk1 as a control to observe the effects of drugs on Dkk1-induced signal transduction. After 48 hours, the mice were sacrificed, and the left and right quadriceps were taken to measure the […].
Membrane proteins were extracted according to the instructions of Membrane Protein Extraction Kit (Sangon Biotech, China). Western blot analysis omitted. Antibodies for WB analysis were purchased from Cell Signaling Technology and Proteintech.

Regarding `N[C@@H](CSSC[C@H](N)C(=O)N1CCn2cc(-c3ccccc3)nc2[C@@H]1CC1CCCCC1)C(=O)N1CCn2cc(-c3ccccc3)nc2[C@@H]1CC1CCCCC1` [BIM-46187], the “Dkk1-induced γH2AX activation” value in the test on HUVEC cells (BIM-46187 pretreatment 1 μM, 30 min) was “inhibited”. In addition, the “Dkk1-induced cardiac β-arrestin1/2 translocation” value with wild-type mice heart (Dkk1 intracardiac injection with MDC or BIM-46187) is “inhibited; also recorded: significantly prevent Dkk1 direct endocytosis of LRP5/6-induced cardiac β-arrestin1/2 translocation changes”. For the same molecule, in the test on wild-type mice heart (Dkk1 intracardiac injection with MDC pretreatment or combined with BIM-46187), the “Dkk1-induced cardiac changes (LRP5/6, γH2AX, p53, p21)” value is on record as “effectively inhibit Dkk1-induced cardiac injury; also recorded: significantly prevent”. In addition, the “Dkk1-induced translocation of β-arrestin1/2” value in the test on β-arrestin1/2 was “able to prevent Dkk1-induced translocation of β-arrestin1/2”.
Take insulin: in test [1] (STZ diabetic mice), the “blood 8-OHdG (ELISA)” value is “greatly attenuated”; the blood glucose concentration entry is “reduces STZ-induced blood glucose elevation; also recorded: decreased from the first day of treatment and remained at a low level”; the “body weight loss of diabetic mice” value was “promoted the gradual recovery of the weight loss; also recorded: suppressed”. The “blood Dkk1 (ELISA)” value in test [1] (STZ diabetic mice, daily insulin) is listed as “brought high blood Dkk1 concentrations back to basal levels; also recorded: at the basal level”. For the same molecule, in test [1] (STZ diabetic mice, heart), the “cardiac p53, p21, Bax/Bcl-2 and Cleaved Caspase-3” value was “greatly attenuated”; the “cardiac γH2AX” value was “decrease in γH2AX signaling”; the “damage to myocardial structure (HE staining)” value is recorded as “prevented”; the “translocation of cardiac β-arrestin1/2 in diabetic hearts” value was “able to reverse this translocation”. Besides, the “LRP5/6 on the cardiac membrane” value in test [1] (STZ diabetic mice, heart, Western blot) is given as “started to be up-regulated”. In addition, in test [1] (substance alone (FIG. 19G)), the “translocation of insulin receptors on the cardiac membrane or in the plasma” value is on record as “does not induce translocation of insulin receptors”.

B1: LRP6N: soluble protein of the extracellular segment of LRP6 (LRP6 ectodomain) (protein, UniProt O75581 20-1370, looked up)
extracellular domain: APLLLYANRRDLRLVDATNGKENATIVVGGLEDAAAVDFVFSHGLIYWSDVSEEAIKRTEFNKTESVQNVVVSGLLSPDGLACDWLGEKLYWTDSETNRIEVSNLDGSLRKVLFWQELDQPRAIALDPSSGFMYWTDWGEVPKIERAGMDGSSRFIIINSEIYWPNGLTLDYEEQKLYWADAKLNFIHKSNLDGTNRQAVVKGSLPHPFALTLFEDILYWTDWSTHSILACNKYTGEGLREIHSDIFSPMDIHAFSQQRQPNATNPCGIDNGGCSHLCLMSPVKPFYQCACPTGVKLLENGKTCKDGATELLLLARRTDLRRISLDTPDFTDIVLQLEDIRHAIAIDYDPVEGYIYWTDDEVRAIRRSFIDGSGSQFVVTAQIAHPDGIAVDWVARNLYWTDTGTDRIEVTRLNGTMRKILISEDLEEPRAIVLDPMVGYMYWTDWGEIPKIERAALDGSDRVVLVNTSLGWPNGLALDYDEGKIYWGDAKTDKIEVMNTDGTGRRVLVEDKIPHIFGFTLLGDYVYWTDWQRRSIERVHKRSAEREVIIDQLPDLMGLKATNVHRVIGSNPCAEENGGCSHLCLYRPQGLRCACPIGFELISDMKTCIVPEAFLLFSRRADIRRISLETNNNNVAIPLTGVKEASALDFDVTDNRIYWTDISLKTISRAFMNGSALEHVVEFGLDYPEGMAVDWLGKNLYWADTGTNRIEVSKLDGQHRQVLVWKDLDSPRALALDPAEGFMYWTEWGGKPKIDRAAMDGSERTTLVPNVGRANGLTIDYAKRRLYWTDLDTNLIESSNMLGLNREVIADDLPHPFGLTQYQDYIYWTDWSRRSIERANKTSGQNRTIIQGHLDYVMDILVFHSSRQSGWNECASSNGHCSHLCLAVPVGGFVCGCPAHYSLNADNRTCSAPTTFLLFSQKSAINRMVIDEQQSPDIILPIHSLRNVRAIDYDPLDKQLYWIDSRQNMIRKAQEDGSQGFTVVVSSVPSQNLEIQPYDLSIDIYSRYIYWTCEATNVINVTRLDGRSVGVVLKGEQDRPRAVVVNPEKGYMYFTNLQERSPKIERAALDGTEREVLFFSGLSKPIALALDSRLGKLFWADSDLRRIESSDLSGANRIVLEDSNILQPVGLTVFENWLYWIDKQQQMIEKIDMTGREGRTKVQARIAQLSDIHAVKELNLQEYRQHPCAQDNGGCSHICLVKGDGTTRCSCPMHLVLLQDELSCGEPPTCSPQQFTCFTGEIDCIPVAWRCDGFTECEDHSDELNCPVCSESQFQCASGQCIDGALRCNGDANCQDKSDEKNCEVLCLIDQFRCANGQCIGKHKKCDHNVDCSDKSDELDCYPTEEPAPQA
modifications: extracellular domain
Turning to B1, in the test with HUVEC cells (Dkk1 then H2O2 50 μM), the “γH2AX signaling enhanced by H2O2 in the presence of Dkk1” value was “significantly attenuated”. Also, the “H2O2-activated γH2AX signaling in control and β-catenin-knockdown cells” value in the test with HUVEC cells (H2O2 50 μM) is recorded as “no effect”. In addition, in the test with HUVEC cells (H2O2 50 μM, LRP6N pretreatment), the “γH2AX signaling in MESD knockdown cells enhanced by H2O2” value is given as “significantly attenuats this change” and the “γH2AX signaling of LRP5/6 knockdown cells further activated by H2O2” value is on record as “significantly attenuated”. The “H2O2-induced γH2AX activation” value in the test on HUVEC cells (H2O2 50 μM, without Dkk1) is on record as “does not prevent H2O2-induced γH2AX activation”. Further, in the test with HUVEC cells (LRP6N pre-added to culture medium), the “γH2AX upregulation induced by knockdown of LRP5/6” value is listed as “reverses cellular DNA damage induced by knockdown of LRP5/6; also recorded: significantly attenuated”. In the test on HUVEC cells (no Dkk1, no H2O2), the “γH2AX response by the substance itself” value was “does not elicit γH2AX responses”. In addition, the “Dkk1-induced γH2AX activation” value in the test on HUVEC cells (pretreatment with MDC or LRP6N protein) was “inhibits Dkk1-induced γH2AX activation”.

B2: IGFBP4/H95P: recombinant mutant IGFBP4/H95P protein, which lost its IGF-binding ability, can bind to LRP6 on the membrane and prevent Dkk1 signaling (protein, UniProt P22692 22-258, looked up, variant H95P)
Insulin-like growth …: DEAIHCPPCSEEKLARCRPPVGCEELVREPGCGCCATCALGLGMPCGVYTPRCGSGLRCYPPRGVEKPLHTLMPGQGVCMELAEIEAIQESLQPSDKDEGDHPNNSFSPCSAHDRRCLQKHFAKIRDRSTSGGKMKVNGAPREDARPVPQGSCQSELHRALERLAASQSRTHEDLYIIPIPNCDRNGNFHPKQCHPALDGQRGKCWCVDRKTGVKLPGGLEPKGELDCHQLADSFRE
B2: the “loss of body weight and muscle weight” value in the test with CT26 tumor-bearing mice (listed as IGFBP4) is “reverse tumor-induced loss of tumor-free body weight and muscle atrophy”; with CT26 tumor-bearing mice (listed as IGFBP-4/H95P) it was “completely prevents the decrease in body weight and muscle weight”. Besides, the “Dkk1-induced endocytosis / downregulation of membrane LRP6 and Kremen2” value in the test with LRP6 and Kremen2 is “inhibit downregulation of membrane LRP6 expression induced by Dkk1”.
